A short description of series [1]: In vitro metabolic stability in mouse liver microsomes. Format: in vitro ADME. The conditions noted are these: 1 μM; 0.5 mg/mL microsomes; up to 60 min. Background: Microsomes from liver hold many membrane-bound enzymes, among them those of drug oxidation.
A short description of series [2]: In vitro metabolic stability in human liver microsomes. The conditions noted are these: 1 μM; 0.5 mg/mL microsomes; up to 60 min. Format: in vitro ADME.
Series [3] relates to Plasmodium yoelli. The series can be described thus: Plasmodium yoelli infection in mice. The conditions noted are these: unpublished results. Format: in vivo.
The test system of series [4] is L. mexicana amastigote. It is filed as cell-based. The conditions noted are these: Leishmania mexicana, J774.A1, read-out: inhibition at 0.1 μM vs L. mexicana.
Series [5] has as its system L. mexicana. The experiment in a line: In vivo efficacy, murine model of cutaneous leishmaniasis. Further details: species or system BALB/c mice. The conditions noted are these: oral gavage 40–60 mg/kg/d for 10 days.
The test system of series [6] is Salmonella typhimurium TA100 and TA98. The experiment in a line: Ames mutagenicity assay. It is filed as cell-based. The conditions noted are these: up to 10 μM, with and without S9.

Structures can show the parent of a compound that is named as a salt.

Take `C(/NC1CCCCC1)=C1/N=C(c2ccc[nH]2)C2=C1CCCC2.Cl` [compound 101, (Z)-N-((3-(1H-Pyrrol-2-yl)-4,5,6,7-tetrahydro-1H-isoindol-1-ylidene)methyl)cyclohexanamine Hydrochloride]: in series [1], the “metabolic stability (t1/2, min) vs MLM” value was found to be 33.0 min. Moreover, the “metabolic stability (t1/2, min) vs HLM” value in series [2] is on record as 26.7 min. Further, the “efficacy in curing Plasmodium yoelli infections in mice” value (shortened to “efficacy … in mice”) in series [3] is “strong efficacy”.
Regarding `CCC1=C(CC)/C(=C/N[C@H]2CC[C@H](C)CC2)N=C1c1ccc[nH]1.Cl` [compound 95, (1r,4r)-N-((Z)-(3',4'-Diethyl-1H,5'H-[2,2'-bipyrrol]-5'-ylidene)methyl)-4-methylcyclohexan-1-amine Hydrochloride], in series [1], the “metabolic stability (t1/2, min) vs MLM” value is 37.5 min. Besides, the “metabolic stability (t1/2, min) vs HLM” value in series [2] was found to be 23.3 min. Moreover, the “efficacy … in mice” value in series [3] is “strong efficacy”.
As for `COC1=CC(c2ccc[nH]2)=N/C1=C\Nc1ccccc1OC(F)(F)F` [compound 59, (Z)-N-((4'-Methoxy-1H,5'H-[2,2'-bipyrrol]-5'-ylidene)methyl)-2-(trifluoromethoxy)aniline Hydrochloride], the inhibition of growth at 0.1 µM in series [4] was ~30%.
Turning to `CCc1ccc(C2=N/C(=C\NC3CCCCCC3)C(C)=C2C)[nH]1.Cl` [compound 110, (Z)-N-((5-Ethyl-3',4'-dimethyl-1H,5'H-[2,2'-bipyrrol]-5'-ylidene)methyl)cycloheptanamine Hydrochloride], the “in vivo efficacy compared with the other TAs tested” value in series [5] was “greater efficacy than both 95 and 101”. Also, the Ames mutagenicity result in series [6] is reported as “negative”. Also, the “metabolic stability (t1/2, min) vs MLM” value in series [1] is listed as > 60.0 min. For the same compound, the “metabolic stability (t1/2, min) vs HLM” value in series [2] is on record as > 60.0 min. Besides, the “efficacy … in mice” value in series [3] is “strong efficacy”.
As to `CC1=C(C)/C(=C/NC2CCCCCC2)N=C1c1ccc(CC(C)C)[nH]1.Cl` [compound 111, (Z)-N-((5-Isobutyl-3',4'-dimethyl-1H,5'H-[2,2'-bipyrrol]-5'-ylidene)methyl)cycloheptanamine Hydrochloride], the “metabolic stability (t1/2, min) vs MLM” value in series [1] is > 60.0 min. In series [2], the “metabolic stability (t1/2, min) vs HLM” value was > 60.0 min.
As for `Cc1ccc(Oc2ccc(N/C=C3\N=C(c4ccc[nH]4)C4=C3CCCC4)cc2)cc1.Cl` [compound 109, (Z)-N-((3-(1H-Pyrrol-2-yl)-4,5,6,7-tetrahydro-1H-isoindol-1-ylidene)methyl)-4-(p-tolyloxy)aniline Hydrochloride], the “metabolic stability (t1/2, min) vs MLM” value in series [1] is > 60.0 min. In addition, the “metabolic stability (t1/2, min) vs HLM” value in series [2] is > 60.0 min.
Consider `COC1=CC(c2ccc(Cc3ccc(OC)cc3)[nH]2)=N/C1=C\NC1CCCCCC1.Cl` [compound 121, (Z)-N-((4'-Methoxy-5-(4-methoxybenzyl)-1H,5'H-[2,2'-bipyrrol]-5'-ylidene)methyl)cycloheptanamine Hydrochloride], for which the “metabolic stability (t1/2, min) vs MLM” value in series [1] turned out to be 14.8 min. Besides, the “metabolic stability (t1/2, min) vs HLM” value in series [2] was found to be 25.6 min.
Taken in the same sequence, the figures for `CC1=C/C(=C\NC23CC4CC(CC(C4)C2)C3)N=C1c1ccc[nH]1.Cl` [compound 88] were 17.6 min and > 60.0 min.
The matching figures for `CC1=C(C)/C(=C/NC2CCCCCC2)N=C1c1ccc[nH]1.Cl` [compound 90]: 11.2 min and 45.1 min.
Take `CCc1ccc(C2=N/C(=C\NC3CCCCCCC3)C(C)=C2C)[nH]1.Cl` [compound 112, (Z)-N-((5-Ethyl-3',4'-dimethyl-1H,5'H-[2,2'-bipyrrol]-5'-ylidene)methyl)cyclooctanamine Hydrochloride]: the “metabolic stability (t1/2, min) vs MLM” value in series [1] is listed as > 60.0 min. The “metabolic stability (t1/2, min) vs HLM” value in series [2] is given as > 60.0 min.
Regarding `CCc1c(C)[nH]c(C2=N/C(=C\NC34CC5CC(CC(C5)C3)C4)C(C)=C2C)c1C.Cl` [compound 116], in series [1], the “metabolic stability (t1/2, min) vs MLM” value is 29.0 min. In series [2], the “metabolic stability (t1/2, min) vs HLM” value was > 60.0 min.
